Results reported in US20240002376A1, “COMPOSITIONS AND METHODS FOR G-PROTEIN-COUPLED RECEPTOR 44 DETECTION” (City of Hope, priority 2020, published 2024).
“Also recorded” adds a separate entry of the source.

How the values were obtained:
Format in all cases: in vivo
[1] = Biodistribution of 18F GPR44 radioligand in healthy NOD/SCID mice
Description: Bio-distribution analysis over time of a unique ^18F GPR44 radioligand in healthy NOD/SCID mice. The biodistribution of [^18F] Ab-1 was investigated in health NOD/SCID mice. The mice were administered doses of the radiotracer i.v. through the tail vein under general anesthesia. At 30, 60, and 90 minutes post-injection, mice were euthanized. The blood, lung, heart, liver, spleen, stomach, small and large intestines, muscle, kidney, pancreas and bone were collected, weighed, and radioactivity counted. […] We also injected cold unlabeled Ab-1, as a blocking agent, and collected the organs at 30 minutes post-injection. Organ uptake varied little from results obtained in mice given the radiotracer.

GPR44+1.1B4 cells = test: Biodistribution in NOD/SCID mice implanted with human beta-like 1.1B4 cells
Description: (§1) Preliminary studies confirmed that the human beta-like 1.1B4 cells express GPR44. However, it was not clear if the radiotracer would localize to these cells in living animals. We performed a biodistribution study in NOD/SCID mice post 3 weeks following implantation of 1.1B4 cells. The blocking agent was cold Ab-1. At 30 minutes post-injection, the mice with/without blocking agent were euthanized and organs were collected. […] For mice with transplanted study, 500 IEQ human islets were transplanted into NOD/SCID mice kidney capsule. We also performed the biodistribution study in the mice with human islets (FIG. 9). […] Ab-1. Further, [^18F]

human islets = test: Biodistribution in NOD/SCID mice with human islets transplanted into kidney capsule; details: 500 IEQ human islets in kidney capsule
Description: as §1

CN(C1CCc2c(c3ccccc3n2CC(=O)O)C1)S(=O)(=O)c1ccc([18F])cc1 (centres unmarked) [[^18F] Ab-1]
specific binding in murine tissues ([1]; blocking with cold Ab-1): no specific binding
uptake in the murine pancreas ([1]; i.v. tail vein, 30, 60 and 90 minutes post-injection): minimal uptake
uptake in the liver ([1]; i.v. tail vein, 30, 60 and 90 minutes post-injection, radioactivity counted): Prominent uptake
uptake in the kidneys ([1]; i.v. tail vein, 30, 60 and 90 minutes post-injection, relative to liver): much less so
organ uptake with cold unlabeled Ab-1 as blocking agent versus radiotracer alone ([1]; organs collected 30 minutes post-injection): varied little
effect of blocking agent cold Ab-1 on uptake in 1.1B4 cells (GPR44+1.1B4 cells; 30 minutes post-injection): decreased by cold Ab-1
uptake in other organs before or after administration of cold Ab-1 (GPR44+1.1B4 cells; 30 minutes post-injection): not different
uptake in implanted 1.1B4 cells (GPR44+1.1B4 cells; 30 minutes post-injection, 3 weeks after implantation): highest uptake; also recorded: accumulated
binding to GPR44+1.1B4 cells (GPR44+1.1B4 cells; in vivo, blocking with cold Ab-1): specifically binds
specific binding to human islets (human islets): high specific binding
uptake in human islets (human islets): significant uptake; also recorded: accumulated
